Holding throughout (test): NCI anticancer screen, dose series, 48 h
In experiment [1] the test system is 786-0 renal.
In experiment [2] the test system is DU-145 prostate.
Experiment [3] concerns HT29 colon.
Experiment [4] has as its system T-47D breast.
The subject of experiment [5] is OVCAR-4 ovarian.
Experiment [6] deals with SK-MEL-2 melanoma.
The test system of experiment [7] is A549 NSCLC.
Experiment [8] has as its system SF-295 CNS.
Experiment [9] concerns K-562 leukemia.
For experiment [10], the system named is ACHN renal.

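Method: 48-hour compound exposure of cells in 96-well plates, five concentrations, linear interpolation of endpoints. Here, GI50 denotes the concentration required for 50% inhibition of growth. Definition used: TGI = concentration required for complete inhibition of growth.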 Some results are limits rather than exact numbers.

For `ClCCCN1CCN(CCCl)CC1`, the TGI in experiment [1] is 427 µM; in [2], 692 µM; in experiment [3] it was > 818 µM; in experiment [4], > 745 µM; in experiment [5] it was 430 µM; in experiment [6] it was 760 µM. In addition, the TGI in [7] was > 851 µM; in [8], 456 µM; in experiment [9] it was > 965 µM; in experiment [10] it was 265 µM. Further, the GI50 in experiment [2] was 26.9 µM; in [7], 96.2 µM; in experiment [8], 40.8 µM; in experiment [9], 82.9 µM; in [10], 7.09 µM.
Consider `Cc1cccc2c(=O)c3cccc([C@H](C)C(=O)O)c3oc12`, for which the TGI in [1], in [2], in [3], in experiment [4], in experiment [5] and in experiment [6] was > 100 µM in each case. Besides, the TGI in [7], in experiment [8], in experiment [9] and in [10] was > 100 µM in each case.
Take `Nc1cc(CO)cc(Nc2c3ccccc3nc3ccccc23)c1`: the TGI is 30.4 µM in [1]; 73.1 µM in experiment [2]; 28.8 µM in [3]; 34.4 µM in [4]; 29.7 µM in experiment [5]; 30.5 µM in experiment [6]. The TGI was 38.9 µM in [7], 25.3 µM in experiment [8], > 100 µM in experiment [9] and 31.9 µM in experiment [10].
On to `CCOC(CBr)OC1C(=O)OCC1(C)C` (stereo not given), for which the TGI in experiment [1], in experiment [2], in experiment [3], in experiment [4], in experiment [5] and in experiment [6] was > 100 µM in each case. Besides, the TGI in [7], in [8], in experiment [9] and in [10] was > 100 µM throughout.
For `COc1cc(C[C@@]2(C)[C@@H]3CCC[C@H](CO)[C@@]3(C)CC[C@@H]2C)c(Cl)c(OC)c1`, the TGI is 29.1 µM in experiment [1]; 30 µM in experiment [2]; 26 µM in experiment [3]; 22.9 µM in experiment [4]; 33.3 µM in experiment [5]; 33.5 µM in [6]. Besides, the TGI in experiment [7] is 29.6 µM; in [8] it was 29.9 µM; in experiment [9] it was 53 µM; in experiment [10], 29.4 µM.
As for `C/C(Cc1ccc2c(c1)OCO2)=N\N=c1\sc2ccccc2n1C`, the TGI in experiment [1], in experiment [2], in experiment [3], in [4], in [5] and in [6] was > 100 µM in each case. Also, the TGI in experiment [7], in experiment [8], in [9] and in experiment [10] was > 100 µM each time.
As to `O=C(Cn1c2ccc(Br)cc2c2nc3ccccc3nc21)NCc1ccccc1`, the TGI in experiment [1] was 39 µM; in [2], > 100 µM; in experiment [3], > 100 µM; in experiment [4], 18.6 µM; in [5] it was > 100 µM; in experiment [6], 95.1 µM. Further, the TGI in [7] is > 100 µM; in experiment [8], > 100 µM; in experiment [9] it was > 100 µM; in [10], 41.7 µM.
For `N=c1oc2cc(O)ccc2cc1C(=O)Nc1ccccn1`, the TGI was 39.3 µM in [1]; 61 µM in experiment [2]; > 100 µM in [3]; > 100 µM in [4]; > 100 µM in [5]; 97.2 µM in experiment [6]. In addition, the TGI in experiment [7], in experiment [8], in [9] and in experiment [10] was > 100 µM each time.
For the compound `Cc1nc2c(Cl)cc(Cl)cc2c2c1CCO2`, the TGI in experiment [1], in experiment [2], in experiment [3], in experiment [4], in experiment [5] and in experiment [6] was > 100 µM each time. In addition, the TGI in [7], in experiment [8], in experiment [9] and in experiment [10] was > 100 µM in each case.
For `Cc1cn(S(=O)(=O)c2ccccc2)c2c(OCc3ccccc3)cc([N+](=O)[O-])cc12`, the TGI in experiment [1], in [2], in experiment [3], in experiment [4], in [5] and in experiment [6] was > 100 µM each time. The TGI in experiment [7], in experiment [8], in experiment [9] and in experiment [10] was > 100 µM in each case.
Take `CC1OC(NCCNCCNC2OC(C)C(O)C(O)C2O)C(O)C(O)C1O` (stereo not given): the TGI in experiment [1], in experiment [2], in experiment [3], in [4], in experiment [5] and in experiment [6] was > 100 µM each time. Further, the TGI in experiment [7], in experiment [8], in experiment [9] and in [10] was > 100 µM each time.
Consider `O=C(O)c1ccc2c(O)c(O)ccc2c1`, for which the TGI in [1] was 43.9 µM; in experiment [2], > 100 µM; in [3], 21.2 µM; in experiment [4], > 100 µM; in experiment [5] it was 54.1 µM; in experiment [6], 67.3 µM. For the same compound, the TGI in experiment [7] was > 93.8 µM; in [8], 33.5 µM; in experiment [9], > 63.6 µM; in experiment [10], 29.3 µM.
`CS(=O)(=O)OCCN(CCOS(C)(=O)=O)c1ccc(C=Nc2ccc(-c3csc(Cc4ccccc4)n3)cc2)c(Cl)c1`: the TGI was > 68.3 µM in experiment [1]; > 86.5 µM in experiment [2]; 64.5 µM in experiment [3]; > 84.2 µM in [4]; > 100 µM in experiment [5]; > 67.9 µM in [6]. The TGI was > 83.7 µM in experiment [7], > 86.3 µM in [8], 76.9 µM in experiment [9] and > 84 µM in [10].
Turning to `COc1cc(/C=C/C(=O)CC(=O)/C=C/c2cc(C)c(O)c(OC)c2)cc(C)c1O`, the TGI in experiment [1], in experiment [2], in experiment [3], in experiment [4], in experiment [5] and in experiment [6] was > 100 µM throughout. Besides, the TGI in [7], in experiment [8], in [9] and in [10] was > 100 µM in each case.
For the compound `NCCCn1c(Cl)nc2ccccc21`, the TGI in [1], in experiment [2], in experiment [3], in experiment [4], in [5] and in [6] was > 100 µM in each case. The TGI in experiment [7], in experiment [8], in [9] and in experiment [10] was > 100 µM in each case.
Take `COc1cc2ncnc(NS(=O)(=O)c3cc4ccccc4s3)c2cc1OC`: the TGI in [1], in experiment [2], in experiment [3], in experiment [4], in experiment [5] and in [6] was > 100 µM each time. Besides, the TGI in [7], in [8], in experiment [9] and in experiment [10] was > 100 µM in each case.
`Nc1cc(C2CCCc3c2[nH]c2ccccc32)ccc1O` (stereo not given): the TGI in [1], in experiment [2], in experiment [3], in experiment [4], in experiment [5] and in experiment [6] was > 100 µM each time. The TGI in experiment [7], in experiment [8], in [9] and in [10] was > 100 µM in each case.
For `CN1C/C(=C\c2cccs2)C2=NN(c3ccccc3)C(c3cccs3)C2C1` (stereo not given), the TGI in experiment [1] is > 44.7 µM; in [2] it was > 58.2 µM; in [3], 22.4 µM; in experiment [4], 96.3 µM; in [5], > 100 µM; in [6], > 100 µM. Moreover, the TGI is > 100 µM in experiment [7], > 80.3 µM in [8], > 100 µM in experiment [9] and > 100 µM in experiment [10].
On to `Cc1ccc(C(=O)Nc2ccc(S(=O)(=O)O)c3cc(S(=O)(=O)O)cc(S(=O)(=O)O)c23)cc1NC(=O)c1cccc(NC(=O)Nc2cccc(C(=O)Nc3cc(C(=O)Nc4ccc(S(=O)(=O)O)c5cc(S(=O)(=O)O)cc(S(=O)(=O)O)c45)ccc3C)c2)c1`, for which the TGI in experiment [1], in experiment [2], in [3], in experiment [4], in experiment [5] and in experiment [6] was > 100 µM in each case. Also, the TGI in experiment [7], in [8], in [9] and in experiment [10] was > 100 µM throughout.
Consider `CC(=O)OCC1OC(n2c(C)c(C)cc(C#N)c2=S)C(OC(C)=O)C(OC(C)=O)C1OC(C)=O` (stereo not given), for which the TGI in [1], in experiment [2], in [3], in experiment [4], in experiment [5] and in experiment [6] was > 100 µM in each case. In addition, the TGI in experiment [7], in experiment [8], in experiment [9] and in experiment [10] was > 100 µM throughout.
On to `CC(=O)C1=C(C)N(c2ccccc2)C2(O)C3=C(C(=O)c4ccccc4C3=O)C(O)=CC12Cl` (stereo not given), for which the TGI in experiment [1] was > 100 µM; in [2], > 100 µM; in [3], 8.45 µM; in experiment [4], > 100 µM; in [5], 14.5 µM; in [6], 22.2 µM. In addition, the TGI in experiment [7] was > 100 µM; in [8] it was 40.6 µM; in experiment [9] it was > 100 µM; in experiment [10], 33.2 µM.
Turning to `CC(C)CC1c2[nH]c3ccccc3c2C[C@H]2C(=O)NC(Cc3c[nH]c4ccccc34)C(=O)N12` (stereo not given in full), the TGI is 40.2 µM in experiment [1]; > 100 µM in [2]; 31.2 µM in experiment [3]; 42.5 µM in [4]; 63.8 µM in experiment [5]; 32.9 µM in experiment [6]. Further, the TGI in experiment [7] turned out to be 71 µM; in experiment [8], 43.8 µM; in experiment [9], 61.5 µM; in experiment [10], 60 µM.

For the origin of these results see PubChem BioAssay (NCI).
